In ChEMBL document CHEMBL1125586, “Novel thiophene-, pyrrole-, furan-, and benzenecarboxamidotetrazoles as potential antiallergy agents” (J Med Chem, 1991):
≈ marks a conversion by molar mass, not a printed value.

Experiments:
physchem [1] = conditions: buffer, pH 7.4
Description: Solubility was determined at pH 7.4

Homo sapiens [2] = species on record: Homo sapiens; assay: cells
Description: Percent inhibition of histamine release from human basophils at a concentration of 10 uM.

Homo sapiens [3] = species on record: Homo sapiens; assay: cells; remark: listed apart in the source
Description: Percent inhibition of histamine release from human basophils at a concentration of 33 uM.

Homo sapiens [4] = species on record: Homo sapiens; assay: cells; remark: listed apart in the source
Description: Compound was tested for the concentration to inhibit 50% of anti-IgE-stimulated histamine release from human basophils.

physchem [5] = conditions: buffer, pH 7.4; remark: listed apart in the source
Description: Log P value was determined at pH 7.4 using correlation (HPLC) method.

| SMILES | solubility (physchem [1]) | inhibition at 10 µM (Homo sapiens [2]) | inhibition at 33 µM (Homo sapiens [3]) | IC50 (Homo sapiens [4]) | chromatographic logD (physchem [5]) |
| --- | --- | --- | --- | --- | --- |
| COc1ccc2sc(C(=O)Nc3nnn[nH]3)c(OC(C)C)c2c1 | 1840 µg/mL (≈ 5.52 mM) | 95% | 97% | 1.1 µM | 1.78 |
| COc1sc(C(=O)Nc2nn[nH]n2)c(OC(C)C)c1Br | 1900 µg/mL (≈ 5.25 mM) | 92% | 95% | 2 µM | 1.35 |
| Cc1sc(C(=O)Nc2nn[nH]n2)c(SC(C)C)c1Br |  | 74% | 90% | 5 µM |  |
| CCOc1c(C(=O)Nc2nn[nH]n2)sc(C)c1Br |  | 77% | 100% | 5 µM |  |
| CC(C)Oc1c(C(=O)Nc2nn[nH]n2)sc(C(C)C)c1Br |  | < 25% | < 25% |  |  |
| CC(C)Oc1c(Br)c(Br)n(C)c1C(=O)Nc1nn[nH]n1 | 1900 µg/mL (≈ 4.66 mM) | 37% | 69% | 25 µM | 2.52 |
| Cc1sc(C(=O)Nc2nn[nH]n2)c(OC(C)C)c1Cl |  | 55% | 88% | 8 µM |  |
| Cc1sc(C(=O)Nc2nn[nH]n2)c(OC(C)C)c1Br | 3300 µg/mL (≈ 9.53 mM) | 85% | 97% | 2 µM | 1.72 |
| Cc1sc(C(=O)Nc2nn[nH]n2)c(OCc2ccccc2)c1Br |  | 68% | 91% | 5 µM |  |
| COc1ccc2c(c1)c(OC(C)C)c(C(=O)Nc1nn[nH]n1)n2-c1ccccc1 | 70 µg/mL (≈ 0.178 mM) | 46% | 82% |  | 2.66 |
| COc1ccc2c(c1)c1oc(C(=O)Nc3nn[nH]n3)c(OC)c1n2-c1ccccc1 | < 1 µg/mL | 66% | 91% | 8.5 µM | 2.8 |
| COc1c(Br)cc(C(=O)Nc2nn[nH]n2)c(OC(C)C)c1Br |  | < 25% | 28% |  |  |
| CC(C)Oc1c(Br)c(Br)n(Cc2ccccc2)c1C(=O)Nc1nn[nH]n1 |  | < 25% | < 25% |  |  |
| CC(C)Oc1c(C(=O)Nc2nn[nH]n2)[nH]c(Br)c1Br |  | < 25% | < 25% |  |  |
| CC(C)Oc1c(Br)c(Br)n(-c2ccccc2)c1C(=O)Nc1nn[nH]n1 |  | < 25% | < 25% |  |  |
| Cc1cc(OC(C)C)c(C(=O)Nc2nn[nH]n2)s1 |  | < 25% | < 25% |  |  |
| Cc1sc(C(=O)Nc2nn[nH]n2)c(OC(C)C)c1OC(C)C |  | < 25% | < 25% |  |  |
| COc1ccc(C(=O)Nc2nn[nH]n2)c(OC(C)C)c1[Si](C)(C)C |  | < 25% | < 25% |  |  |
| COc1ccc(C(=O)Nc2nn[nH]n2)c(OC(C)C)c1Br |  | < 25% | 60% |  |  |
| CC(C)Oc1c(Br)csc1C(=O)Nc1nn[nH]n1 |  | 30% | 47% |  |  |
| CC(C)Oc1c(C(=O)Nc2nn[nH]n2)sc(-c2ccccc2)c1Br |  | < 25% | < 25% |  |  |
| COc1ccc(C(=O)Nc2nn[nH]n2)c(OC(C)C)c1 |  | < 25% | 41% |  |  |
| CC(C)Sc1c(C(=O)Nc2nn[nH]n2)oc(Br)c1Br |  | < 25% | < 25% |  |  |
| COc1ccc(C(=O)Nc2nn[nH]n2)c(OC(C)C)c1I |  | 51% | 73% | 10 µM | 1.17 |
| Cc1sc(C(=O)Nc2nn[nH]n2)c(OC(C)C)c1C |  | < 25% | < 25% |  |  |
| Cc1sc(C(=O)Nc2nn[nH]n2)c(OC(C)C)c1C(C)C |  | < 25% | < 25% |  |  |
| COc1c(C(=O)Nc2nn[nH]n2)sc(C)c1Br |  | < 25% | 53% |  |  |
| CCCc1c2oc(C(=O)O)cc(=O)c2cc2c(=O)cc(C(=O)O)n(CC)c12 [NEDOCROMIL] |  | < 25% | < 25% |  |  |
